Like-named read-outs stand apart in the source and are kept apart here.
Key:
AKT1 = target: T1, AKT1 (Homo sapiens, UniProt P31749); experiment: AKT1 enzymatic assay (KinEASE-STK S3 HTRF kit); type: biochemical; conditions: 2 nM enzyme, 10 μM ATP, 2 μM S3-biotin
T1 construct: purchased Invitrogen P2999
Description: (§1) The following methods were used to determine the inhibitory effect of the compounds of the present disclosure on the kinase activity of AKT1/AKT2/AKT3 in vitro. The experimental methodology is briefly described as follows:
(§2) The enzyme activity of AKT1 (Invitrogen, P2999), AKT2 (Invitrogen, PV3184) and AKT3 (Invitrogen, PV3185) was determined using a KinEASE-STK S3 kit (Cisbio, 62ST3PEC). Test compounds were each first subjected to 3-fold gradient dilution with DMSO from 500 μM to obtain a total of 11 concentrations. The 5× buffer in the kit was diluted to 1×buffer, and DTT (Sigma, 43816-10ML) and MgCl2 were added to make the buffer contain 1 mM DTT and 5 mM MgCl2. Compounds were each subjected to 20-fold dilution with 1× buffer for later use. The enzyme solution was obtained by diluting the AKT1/AKT2/AKT3 kinase with 1× buffer. ATP (Invitrogen, PV3227) and S3-biotin in the kit were diluted with 1× buffer to obtain a substrate-ATP mixture solution for later use. 2 μL of the enzyme solution and 4 μL of the compound solution were added to each well of a 384-well plate (Corning, 4513), and the mixture was incubated at room temperature for 30 min, followed by addition of 4 μL of the ATP and S3-biotin mixture solution. The resulting mixture was incubated at room temperature for 90 min. AKT1 enzyme reaction conditions were a final concentration of 2 nM for enzyme, a final concentration of 10 μM for ATP, and a final concentration of 2 μM for S3-biotin. AKT2 enzyme reaction conditions were a final concentration of 5 nM for enzyme, a final concentration of 10 μM for ATP, and a final concentration of 2 μM for S3-biotin. AKT3 enzyme reaction conditions were a final concentration of 0.4 nM for enzyme, a final concentration of 45 μM for ATP, and a final concentration of 2 μM for S3-biotin. The detection solution was prepared by diluting the S3-cryptate and streptavidin-XL665 with the detection buffer in the kit. After incubation, 10 μL of the detection solution was added to each well, the final concentration of S3-cryptate was a concentration obtained by 200-fold dilution of the stock solution, and the final concentration of streptavidin-XL665 was 125 nM. The mixture was incubated at room temperature for 60 min, values of signals emitted at […] and 620 nm after excitation at 337 nm were measured by using an HTRF module of a multi-functional microplate detector (BMG Labtech, PHERAstar FS), and the reading ratio was multiplied by 10,000 to obtain a specific value. Dose-response curves were drawn according to the concentration of the compounds and the specific values by using Graphpad Prism software, and the IC50 values for the inhibitory activity of the compounds were calculated.

AKT3 = target: T2, AKT3 (Homo sapiens, UniProt Q9Y243); experiment: AKT3 enzymatic assay (KinEASE-STK S3 HTRF kit); type: biochemical; conditions: 0.4 nM enzyme, 45 μM ATP, 2 μM S3-biotin
T2 construct: purchased Invitrogen PV3185
T2 sequence (Q9Y243 whole entry): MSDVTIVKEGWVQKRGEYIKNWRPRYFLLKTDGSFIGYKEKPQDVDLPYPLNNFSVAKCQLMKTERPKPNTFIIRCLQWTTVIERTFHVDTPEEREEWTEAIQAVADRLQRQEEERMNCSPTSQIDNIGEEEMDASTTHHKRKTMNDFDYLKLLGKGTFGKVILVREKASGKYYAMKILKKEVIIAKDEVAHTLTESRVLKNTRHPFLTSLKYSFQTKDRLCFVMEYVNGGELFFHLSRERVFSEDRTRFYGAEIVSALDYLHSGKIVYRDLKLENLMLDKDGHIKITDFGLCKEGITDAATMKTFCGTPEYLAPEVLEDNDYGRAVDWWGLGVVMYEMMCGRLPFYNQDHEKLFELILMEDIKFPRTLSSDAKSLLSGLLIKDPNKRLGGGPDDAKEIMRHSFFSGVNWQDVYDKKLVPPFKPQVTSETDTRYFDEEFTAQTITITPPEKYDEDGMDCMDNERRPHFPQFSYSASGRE
Description: as §1, §2

AKT2 = target: T3, AKT2 (Homo sapiens, UniProt P31751); experiment: AKT2 enzymatic assay (KinEASE-STK S3 HTRF kit); type: biochemical; conditions: 5 nM enzyme, 10 μM ATP, 2 μM S3-biotin
T3 construct: purchased Invitrogen PV3184
T3 sequence (P31751 whole entry): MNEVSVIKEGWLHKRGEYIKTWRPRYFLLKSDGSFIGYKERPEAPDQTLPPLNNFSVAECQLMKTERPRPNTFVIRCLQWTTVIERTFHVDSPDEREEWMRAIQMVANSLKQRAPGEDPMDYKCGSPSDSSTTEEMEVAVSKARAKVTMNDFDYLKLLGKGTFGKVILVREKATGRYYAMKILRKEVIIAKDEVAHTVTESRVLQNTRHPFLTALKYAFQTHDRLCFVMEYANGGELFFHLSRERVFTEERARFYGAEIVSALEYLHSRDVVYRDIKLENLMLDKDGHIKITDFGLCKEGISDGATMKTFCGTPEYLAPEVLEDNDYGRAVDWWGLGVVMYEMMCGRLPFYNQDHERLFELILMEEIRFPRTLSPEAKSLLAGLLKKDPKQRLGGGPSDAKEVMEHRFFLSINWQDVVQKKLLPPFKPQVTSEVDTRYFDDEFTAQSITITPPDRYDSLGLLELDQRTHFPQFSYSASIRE
Description: as §1, §2

[1] = Pharmacokinetic study in nude mice, intragastric administration; type: in vivo; conditions: female, mouse, po, Balb/c nude mice, i.g., plasma; for Vd/F: read-out: Apparent volume of distribution Vz/F; for AUC(0-t): read-out: Area under curve AUC0-t; for CL/F: read-out: Clearance CL/F; for half-life: read-out: Half-life T1/2 (converted); for Cmax: read-out: Plasma concentration Cmax; for MRT: read-out: Residence time MRT
Description: The drug concentration in the plasma of the test animals (Balb/c nude mice) at different time points after intragastric administration (i.g.) of the test compounds was determined by using an LC/MS/MS method. The pharmacokinetic performance of the compounds of the present disclosure in nude mice was studied and their pharmacokinetic profile was evaluated.
18 Balb/c nude mice, female, divided into 2 groups and purchased from Vital River Laboratory Animal Technology Co., Ltd.
A certain amount of compound was weighed out, 99.8% 0.5% methylcellulose was added into the compound, and then 0.2% Tween was added. The mixture was subjected to ultrasonic treatment to obtain a suspension, which was stirred for administration.
The nude mice were subjected to intragastric administration, the administration dose was 50 mg/kg or 100 mg/kg, and the administration volume was 0.2 mL/10 g.
The test compound was administered intragastrically to the nude mice, and 0.1 mL of blood was collected before administration and 0.25 h, 0.5 h, 1.0 h, 2.0 h, 4.0 h, 6.0 h, 8.0 h, 11.0 h and 24.0 h after administration. The blood was placed in an EDTA-K2 anticoagulation tube and centrifuged at 10,000 rpm for 1 min (4° C.), and plasma was separated out within 1 h and then stored at −20° C. for testing. The process from blood sampling to centrifugation was performed under an ice bath.
The content of the test compounds at different concentrations in the nude mice plasma after intragastric administration was determined: 20 μL of nude mouse plasma at each time point after administration was mixed with 50 μL of internal standard solution (camptothecin, 100 ng/mL) and 200 μL of acetonitrile, and the mixture was vortexed for 5 min and centrifuged for 10 min at 3700 rpm. 1 μL of supernatant of the plasma sample was taken for LC/MS/MS analysis.

[2] = Pharmacokinetic study in rats, administration by injection (i.v.); type: in vivo; conditions: both sexes, rat, iv, SD rats, 1 mg/kg, plasma; for Vd: read-out: Apparent volume of distribution Vz; for AUC(0-t): read-out: Area under curve AUC0-t; for clearance: read-out: Clearance CL; for half-life: read-out: Half-life T1/2 (converted); for MRT: read-out: Residence time MRT
Description: The drug concentration in the plasma of the test animals (SD rats) at different time points after injection (i.v.) of the test compounds was determined by using an LC/MS/MS method. The pharmacokinetic performance in rats of the compounds of present disclosure was studied and their pharmacokinetic profile was evaluated.
8 SD rats, half male and half female, divided into 2 groups, purchased from Vital River Laboratory Animal Technology Co., Ltd.
A certain amount of the compound was weighed out, and 5% of DMSO, 5% of Tween 80 and 90% of normal saline were added to obtain a colorless and clear solution.
The rats were subjected to administration by injection, the administration dose was 1 mg/kg, and the administration volume was 5 mL/kg.
The test compound was administered by injection to the rats, and 0.2 mL of blood was collected from the orbit before administration and 5 min, 0.25 h, 0.5 h, 1.0 h, 2.0 h, 4.0 h, 8.0 h, 11.0 h and 24.0 h after administration. The blood was placed in an EDTA-K2 anticoagulation tube and centrifuged at 10,000 rpm for 1 min (4° C.), and plasma was separated out within 1 h and then stored at −20° C. for testing. The process from blood sampling to centrifugation was performed under an ice bath.
The content of the test compounds at different concentrations in the rat plasma after administration by injection was determined: 25 μL of rat plasma at each time point after administration was mixed with 50 μL of internal standard solution (camptothecin, 100 ng/mL) and 200 μL of acetonitrile, and the mixture was vortexed for 5 min and centrifuged for 10 min at 3700 rpm. 3 μL of supernatant of the plasma sample was taken for LC/MS/MS analysis.

T1 sequence (P31749 whole entry): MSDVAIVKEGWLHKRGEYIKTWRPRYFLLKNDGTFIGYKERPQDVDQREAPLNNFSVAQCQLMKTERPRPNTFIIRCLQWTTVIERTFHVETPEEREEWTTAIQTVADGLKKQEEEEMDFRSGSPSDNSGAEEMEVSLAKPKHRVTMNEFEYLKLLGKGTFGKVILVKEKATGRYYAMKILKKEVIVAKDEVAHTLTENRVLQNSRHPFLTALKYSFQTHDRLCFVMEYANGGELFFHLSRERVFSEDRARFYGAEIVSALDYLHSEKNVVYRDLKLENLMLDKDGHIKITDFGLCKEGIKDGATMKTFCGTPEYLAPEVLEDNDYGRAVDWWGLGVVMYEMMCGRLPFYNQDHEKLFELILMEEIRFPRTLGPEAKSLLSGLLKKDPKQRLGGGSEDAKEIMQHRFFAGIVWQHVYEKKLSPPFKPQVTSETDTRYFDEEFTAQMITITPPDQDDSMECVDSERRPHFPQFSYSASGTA

## CC(C)NC[C@@H](C(=O)N1[C@@H]2CC[C@H]1CN(c1ncnc3[nH]ccc13)C2)c1ccc(Cl)cc1 [Example 1, (S)-1-((1R,5S)-3-(7H-pyrrolo[2,3-d]pyrimidin-4-yl)-3,8-diazabicyclo[3.2.1]octan-8-yl)-2-(4-chlorophenyl)-3-(isopropylamino)propan-1-one]
AKT1
  IC50: 20 nM
AKT3
  IC50: 27.6 nM
AKT2
  IC50: 64.9 nM

## CC(C)NC[C@@H](C(=O)N1C2CCC1CN(c1ncnc3c1C(C)(C)C(=O)N3)C2)c1ccc(Cl)cc1 [Example 2]
[1]; 50 mg/kg
  Vd/F: 8.03 L/kg
  AUC(0-t): 20200 ng·h/mL
  CL/F: 41.2 mL/min/kg
  half-life: 2.3 h
  Cmax: 3000 ng/mL
  MRT: 4.9 h
[1]; 100 mg/kg
  Vd/F: 16.2 L/kg
  AUC(0-t): 36000 ng·h/mL
  CL/F: 45.4 mL/min/kg
  half-life: 4.1 h
  Cmax: 3500 ng/mL
  MRT: 6.7 h
[2]
  Vd: 13 L/kg
  AUC(0-t): 221 ng·h/mL
  clearance: 75.4 mL/min/kg
  half-life: 2 h
  MRT: 2.6 h
AKT1
  IC50: 60 nM
AKT3
  IC50: 2 nM
AKT2
  IC50: 74.1 nM

## Cc1c[nH]c2ncnc(N3C[C@H]4CC[C@@H](C3)N4C(=O)[C@H](CNC(C)C)c3ccc(Cl)cc3)c12 [Example 3, (S)-2-(4-chlorophenyl)-3-(isopropylamino)-1-((1R,5S)-3-(5-methyl-7H-pyrrolo[2,3-d]pyrimidin-4-yl)-3,8-diazabicyclo[3.2.1]octan-8-yl]propan-1-one]
AKT1
  IC50: 5.2 nM
AKT3
  IC50: 1.2 nM
AKT2
  IC50: 3.9 nM

## CC(C)NC[C@@H](C(=O)N1[C@@H]2CC[C@H]1CN(c1ncnc3c1[C@H](C)C[C@H]3O)C2)c1ccc(Cl)cc1 [Example 4, (S)-2-(4-chlorophenyl)-1-((1R,5S)-3-((5R,7R)-7-hydroxy-5-methyl-6,7-dihydro-5H-cyclopenta[d]pyrimidin-4-yl)-3,8-diazabicyclo[3.2.1]octan-8-yl)-3-(isopropylamino)propan-1-one]
[1]; 50 mg/kg
  Vd/F: 8.71 L/kg
  AUC(0-t): 14300 ng·h/mL
  CL/F: 57.5 mL/min/kg
  half-life: 1.8 h
  Cmax: 4130 ng/mL
  MRT: 3 h
[1]; 100 mg/kg
  Vd/F: 13.2 L/kg
  AUC(0-t): 27500 ng·h/mL
  CL/F: 60.5 mL/min/kg
  half-life: 2.5 h
  Cmax: 5500 ng/mL
  MRT: 3.7 h
[2]
  Vd: 16.3 L/kg
  AUC(0-t): 205 ng·h/mL
  clearance: 82.9 mL/min/kg
  half-life: 2.5 h
  MRT: 2.2 h
AKT1
  IC50: 38.6 nM
AKT3
  IC50: 55.6 nM
AKT2
  IC50: 46.4 nM

## CC(C)NC[C@@H](C(=O)N1C2CCCC1CN(c1ncnc3[nH]ccc13)C2)c1ccc(Cl)cc1 [Example 5, (2S)-1-(3-(7H-pyrrolo[2,3-d]pyrimidin-4-yl)-3,9-diazabicyclo[3.3.1]nonan-9-yl)-2-(4-chlorophenyl)-3-(isopropylamino)propan-1-one]
AKT1
  IC50: 68.1 nM
AKT3
  IC50: 112 nM
AKT2
  IC50: 70.1 nM

## CC(C)NC[C@@H](C(=O)N1C2COCC1CN(c1ncnc3[nH]ccc13)C2)c1ccc(Cl)cc1 [Example 6, (2S)-1-(7-(7H-pyrrolo[2,3-d]pyrimidin-4-yl)-3-oxa-7,9-diazabicyclo[3.3.1]nonan-9-yl)-2-(4-chlorophenyl)-3-(isopropylamino)propan-1-one]
AKT1
  IC50: 88.4 nM
AKT3
  IC50: 268 nM
AKT2
  IC50: 141 nM

## CC(C)NC[C@@H](C(=O)N1CC2COCC(C1)N2c1ncnc2[nH]ccc12)c1ccc(Cl)cc1 [Example 7, (2S)-1-(9-(7H-pyrrolo[2,3-d]pyrimidin-4-yl)-3-oxa-7,9-diazabicyclo[3.3.1]nonan-7-yl)-2-(4-chlorophenyl)-3-(isopropylamino)-propan-1-one]
AKT1
  IC50: 82 nM
AKT3
  IC50: 60 nM
AKT2
  IC50: 270 nM

## CC(C)NC[C@@H](C(=O)N1[C@@H]2CC[C@H]1CN(c1ncnc3c1[C@H](C)C[C@H]3F)C2)c1ccc(Cl)cc1 [Example 8, (S)-2-(4-chlorophenyl)-1-((1R,5S)-3-((5R,7R)-7-fluoro-5-methyl-6,7-dihydro-5H-cyclopenta[d]pyrimidin-4-yl)-3,8-diazabicyclo[3.2.1]octan-8-yl)-3-(isopropylamino)propan-1-one]
AKT1
  IC50: 56.2 nM
AKT3
  IC50: 66 nM
AKT2
  IC50: 54 nM

## Cc1c[nH]c2nccc(N3C[C@H]4CC[C@@H](C3)N4C(=O)[C@H](CNC(C)C)c3ccc(Cl)cc3)c12 [Example 9, (S)-2-(4-chlorophenyl)-3-(isopropylamino)-1-((1R,5S)-3-(3-methyl-1H-pyrrolo[2,3-b]pyridin-4-yl)-3,8-diazabicyclo[3.2.1]octan-8-yl)propan-1-one]
AKT1
  IC50: 19.6 nM
AKT3
  IC50: 6.3 nM
AKT2
  IC50: 13.1 nM

From patent US20230148417A1, “FUSED BICYCLIC DERIVATIVE, PREPARATION METHOD THEREFOR, AND PHARMACEUTICAL USE THEREOF” (Jiangsu Hengrui Pharmaceuticals Co., Ltd., priority 2020, published 2023)
